Experimental data reported in US12351581B2, “Compounds for FGFR inhibition” (Cogent Biosciences, Inc., priority 2023, dated 2025).
Like-named read-outs stand apart in the source and are kept apart here.

What was measured:
[1] = target: T1, FGFR2 (Homo sapiens, UniProt P21802); assay: FGFR wild type enzyme assay (HTRF KinEASE-TK); assay type: biochemical; details: ATP 2 uM
T1 construct: biochemical assays using purified intracellular domains of the respective isoforms; purchased Carna Bioscience 08-134
Summary of the method: (§1)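 Purified intracellular kinase domains, enzyme pre-incubated 30 min with compound (11-point 1:3 dilutions, typically 10,000-0.17 nM), then ATP plus 0.5 uM TK-peptide, 60 min at room temperature in HEPES pH7.5 with Mg2+/Mn2+. HTRF 665/615 ratio converted to percent of control; IC50 from four-parameter logistic fit.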

[2] = target: T2, FGFR2 V564I (Homo sapiens, UniProt P21802, V564I); assay: FGFR mutant enzyme assay (HTRF KinEASE-TK); assay type: biochemical; details: ATP 0.4 uM
T2 construct: biochemical assays using purified intracellular domains of the respective isoforms; purchased Carna Bioscience 08-546
Summary of the method: as §1

[3] = target: T3, FGFR2 V564F (Homo sapiens, UniProt P21802, V564F); assay: FGFR mutant enzyme assay (HTRF KinEASE-TK); assay type: biochemical; details: ATP 1.5 uM
T3 construct: biochemical assays using purified intracellular domains of the respective isoforms; purchased SignalChem Biotech F05-12FG
Summary of the method: as §1

[4] = target: T4, FGFR2 N549H (Homo sapiens, UniProt P21802, N549H); assay: FGFR mutant enzyme assay (HTRF KinEASE-TK); assay type: biochemical; details: ATP 0.9 uM
T4 construct: biochemical assays using purified intracellular domains of the respective isoforms; purchased Carna Bioscience 08-532
Summary of the method: as §1

[5] = target: FGFR2-WT (Homo sapiens, UniProt P21802); assay: Phosphorylated FGFR2-WT (pFGFR2-WT) cell assay, KATOIII cells; assay type: cell-based; details: 1 hour incubation, phospho FGFR2 HTRF
Summary of the method: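 KATOIII cells treated 1 h at 37 °C with threefold compound dilutions (10 μM to 0.5 nM). Lysate phospho-FGFR2 (Tyr653/654) read by HTRF.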

[6] = compound table after the examples, read-out: Enz FGFR2

T3 sequence (P21802 399-821 V564F limits assumed): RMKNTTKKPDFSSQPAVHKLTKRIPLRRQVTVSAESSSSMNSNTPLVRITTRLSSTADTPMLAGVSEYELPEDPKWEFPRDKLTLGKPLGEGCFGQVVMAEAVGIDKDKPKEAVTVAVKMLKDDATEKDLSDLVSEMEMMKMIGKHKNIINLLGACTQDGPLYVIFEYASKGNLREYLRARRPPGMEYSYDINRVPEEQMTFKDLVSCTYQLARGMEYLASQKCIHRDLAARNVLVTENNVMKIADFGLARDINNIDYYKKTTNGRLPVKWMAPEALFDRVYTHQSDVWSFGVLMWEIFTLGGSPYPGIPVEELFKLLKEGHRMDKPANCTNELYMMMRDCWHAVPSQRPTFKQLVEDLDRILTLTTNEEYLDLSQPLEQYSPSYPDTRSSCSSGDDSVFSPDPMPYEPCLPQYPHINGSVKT
T1 sequence (P21802 399-821 limits assumed): as the sequence (P21802 399-821 V564F limits assumed) above, with F166V counted along it
T2 sequence (P21802 399-821 V564I limits assumed): as the sequence (P21802 399-821 V564F limits assumed) above, with F166I counted along it
FGFR2-WT, sequence (P21802 430-767 limits assumed): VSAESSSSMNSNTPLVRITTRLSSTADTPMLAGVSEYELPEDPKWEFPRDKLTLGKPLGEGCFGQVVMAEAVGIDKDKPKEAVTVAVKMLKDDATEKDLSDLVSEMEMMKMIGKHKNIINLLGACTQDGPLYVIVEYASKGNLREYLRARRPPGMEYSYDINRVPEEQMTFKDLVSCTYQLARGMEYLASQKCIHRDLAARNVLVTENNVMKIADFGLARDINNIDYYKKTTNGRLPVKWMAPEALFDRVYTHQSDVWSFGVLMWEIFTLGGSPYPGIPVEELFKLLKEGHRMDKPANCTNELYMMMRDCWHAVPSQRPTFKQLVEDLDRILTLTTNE
T4 sequence (P21802 399-821 N549H limits assumed): as the sequence (P21802 399-821 V564F limits assumed) above, with N151H, F166V counted along it

SMILES	IC50 ([1]; Table 3, read-out: FGFR2 Enz) [nM]	IC50 [1, 6] [nM]	IC50 [2] [nM]	IC50 [3] [nM]	IC50 [4] [nM]	IC50 [5] [nM]
Cc1c(-c2cc(O[C@H](C)c3ccc(F)cn3)c3c(C#N)cnn3c2)cnn1[C@@H]1CCC[C@@H](O)C1 [Compound 68, 4-((R)-1-(5-fluoropyridin-2-yl)ethoxy)-6-(1-((1R,3R)-3-hydroxycyclohexyl)-5-methyl-1H-pyrazol-4-yl)pyrazolo[1,5-a]pyridine-3-carbonitrile]	1	1	4	3	1	8
Cc1c(-c2cc(O[C@@H](c3ccc(F)cn3)C(F)(F)F)c3c(C#N)cnn3c2)cnn1[C@H]1CC[C@H](O)CC1 [Compound 69, 6-(1-((1r,4S)-4-hydroxycyclohexyl)-5-methyl-1H-pyrazol-4-yl)-4-((S)-2,2,2-trifluoro-1-(5-fluoropyridin-2-yl)ethoxy)pyrazolo[1,5-a]pyridine-3-carbonitrile]	0.4	0.4	1.6	1.6	1	2
Cc1c(-c2cc(O[C@H](c3ccc(F)cn3)C(F)(F)F)c3c(C#N)cnn3c2)cnn1[C@H]1CC[C@H](O)CC1 [Compound 70, 6-(1-((1r,4R)-4-hydroxycyclohexyl)-5-methyl-1H-pyrazol-4-yl)-4-((R)-2,2,2-trifluoro-1-(5-fluoropyridin-2-yl)ethoxy)pyrazolo[1,5-a]pyridine-3-carbonitrile]	110	110	420	219	160	790
Cc1c(-c2cc(O[C@H](C)c3ccc(F)cn3)c3c(C#N)cnn3c2)cnn1[C@H]1CCC[C@@H](O)C1 [Compound 71, 4-((R)-1-(5-fluoropyridin-2-yl)ethoxy)-6-(1-((1S,3R)-3-hydroxycyclohexyl)-5-methyl-1H-pyrazol-4-yl)pyrazolo[1,5-a]pyridine-3-carbonitrile]	1	1	3	2	1	4.5
Cc1c(-c2cc(O[C@H](C)c3ccc(F)cn3)c3c(C#N)cnn3c2)cnn1[C@@H]1CCC[C@H](O)C1 [Compound 72, 4-((R)-1-(5-fluoropyridin-2-yl)ethoxy)-6-(1-((1R,3S)-3-hydroxycyclohexyl)-5-methyl-1H-pyrazol-4-yl)pyrazolo[1,5-a]pyridine-3-carbonitrile]	0.4	0.4	1.5	1	0.45	3
